Assay results from patent US20150056702A1, “METHOD AND KIT FOR CULTURING STEM CELLS” (China Medical University, priority 2013, published 2015).

Columns and labels:
Assay type in all cases: cell-based, mouse
ES cells = test: Embryoid body formation and differentiation of ES cells; conditions: BP10 medium, ES cells passaged 3 times, Tuj1, α-SMA, Gata4 staining
Description: The embryoid body formation and differentiation were also observed by immunofluorescence staining to observe the effect of BP on maintaining the pluripotency of ES cells.
An experimental group medium (BP10) was used to culture ES cells with an initial density of 1×10^4 per well in a 6-well culture dish. The ES cells were passaged 3 times and incubated for another 2 to 3 days in the Ultra Low Cluster Plate (Costar) containing the embryoid body formation medium [DMEM+20% FBS+β-mercaptoethanol (1 mM)+1% L-glutamine+1% NEAA], and then the embryoid body formation was observed. The embryoid bodies were placed into another 24-well culture dish (5 to 6 embryoid bodies/well) and incubated for another 3 days. Next, immunofluorescence staining was conducted to detect cells with an anti-Tuj1 antibody (ectoderm marker), an anti-α-SMA antibody (mesoderm marker) and an anti-Gata4 antibody (endoderm marker).

Oct4 = test: Real-time PCR, Oct4 gene expression in ES cells; conditions: for Oct4 gene expression level: ES cells, control group = 100%
Description: (§1) The following steps were conducted in order to culture ES cells: • (1) preparing a stem cell medium: DMEM+15% heat-inactivated FBS+NEAA (0.1 mM)+L-glutamine (2 mM)+β-mercaptoethanol (0.2 mM); • (2) preparing a BP-containing solution: dissolving BP into DMSO to form a BP-containing solution (100 mg/ml), and storing the solution at −20° C.; • (3) adding different amounts of the BP-containing solution in step (2) into the stem cell medium in step (1) to form different BP-containing mediums, wherein the amount of BP were about 5, 10, 20 or 40 μg per milliliter of the stem cell medium respectively (i.e. the experimental group mediums: BP5, BP10, BP20 and BP40); and • (4) using the BP-containing medium of in step (3) to culture a ES cell (retrieved from the embryos in the blastula stage of 129sv/J mice) at 37° C., 5% CO2 and 95% humidity on the feeder cells provided by Example 1.
(§2) An experimental group medium (BP5, BP10, BP20 or BP40) and a control group medium (without BP) were added respectively to perform the following steps. ES cells were cultured with an initial density of 1×10^4 per well in a 6-well culture dish. The medium was removed until the cells growth to be about 70 to 80% confluence, and then 1 ml TRIzol (Invitrogen) was added into each well. The cells were incubated for 5 minutes, and then was scraped by a spatula and placed into a 1.5 ml microtube to be lysed adequately. Chloroform (0.2 ml) was added into the microtubes. The mixture was shaken up and down for 15 seconds, and then incubated at room temperature for 2 to 3 minutes. Thereafter, the mixture was centrifuged at 12000 rpm at 4° C. for 15 minutes, and the supernatant was removed into another 1.5 ml microtube and isopropanol (0.5 ml) was added into the microtube with well mixing. The mixture was incubated at room temperature for 10 minutes and then centrifuged at 12000 rpm at 4° C. for 10 minutes. The supernatant was then removed. One ml of 70% ethanol containing DEPC.H2O was used to wash the remaining sediment. The sediment was centrifuged at 7500 rpm at 4° C. for 5 minutes. The supernatant was removed. The sediment was dried by vacuum suction. The dried samples were dissolved in about 0.01 to 0.02 ml of DEPC.H2O to obtain the experimental group RNA and control group RNA. Both groups were stored at −80° C.
(§3) The OD value of RNA samples in both groups obtained from the above Experiment I were measured at a wavelength of 260 nm (RNA: OD260=1 for a 40 μg/mL solution). Each RNA sample (2 μl) was added with RNA-free water until the volume of the sample reached 10 μl. Two μl oligo (dT) (100 μg/ml) was added into each sample, and the samples were incubated at 65° C. for 5 minutes. Then, the samples were immediately placed on ice and spun down. Next, 6.5 μl of a reaction solution [4 μl of 5× buffer+1 μl of 0.1 M DTT+1 μl of RNase out+0.5 μl of SSIII (Invitrogen)] was added into each of the samples, and the samples were incubated at 50° C. for about 30 to 60 minutes and at 75° C. for 15 minutes to obtain the experimental group cDNA and control group cDNA. Both groups were stored at −80° C.
(§4) This experiment was used to detect the expression levels of ES cell-related genes, i.e., Oct4 and Sox2, etc. […] The cycle threshold (CT) values were measured.

Sox2 = test: Real-time PCR, Sox2 gene expression in ES cells; conditions: for Sox2 gene expression level: ES cells, control group = 100%
Description: as §1, §2, §3, §4

[1] = BP10 medium (about 10 μg BP/ml)
[2] = BP20 medium (about 20 μg BP/ml)
[3] = BP40 medium (about 40 μg BP/ml)
[4] = BP-containing ES cell culture medium vs control group, result in words

CCCC=C1OC(=O)c2ccccc21 [BP, n-butylidenephthalide]
embryoid body formation and differentiation (ES cells): form an embryoid body and further differentiate into all three germ layer cells
Oct4 gene expression level (Oct4; BP5 medium (about 5 μg BP/ml)): 119%
Oct4 gene expression level (Oct4; [1]): 419%
Oct4 gene expression level (Oct4; [2]): 258%
Oct4 gene expression level (Oct4; [3]): 144%
gene expression level of Oct4 (Oct4; [4]): significantly up-regulated
Sox2 gene expression level (Sox2; BP5 medium (about 5 μg BP/ml)): 91%
Sox2 gene expression level (Sox2; [1]): 245%
Sox2 gene expression level (Sox2; [2]): 210%
Sox2 gene expression level (Sox2; [3]): 140%
gene expression level of Sox2 (Sox2; [4]): significantly up-regulated
